Data reported in patent EP0795330A1, “Medicament for the treatment of insomnia” (ELI LILLY AND COMPANY, priority 1996, dated 1997).

Experiments:
[1] = detection of radiolabelled olanzapine in saliva; format: in vivo, patients
Procedure: For example, in the treatment of adult humans, dosages of from 5 to 25 mg per day may be used. A once a day dosage is normally sufficient. For treatment of insomnia, a dose range of from 5 to 100 mg, is suitable, while a dosage of from 5 to 25 mg per day is preferred.

[2] = molecular target: T1, 5-HT1C receptor (Homo sapiens, UniProt P28335); experiment: pharmacological studies, 5-HT1C receptor activity
T1 sequence (P28335 33-458): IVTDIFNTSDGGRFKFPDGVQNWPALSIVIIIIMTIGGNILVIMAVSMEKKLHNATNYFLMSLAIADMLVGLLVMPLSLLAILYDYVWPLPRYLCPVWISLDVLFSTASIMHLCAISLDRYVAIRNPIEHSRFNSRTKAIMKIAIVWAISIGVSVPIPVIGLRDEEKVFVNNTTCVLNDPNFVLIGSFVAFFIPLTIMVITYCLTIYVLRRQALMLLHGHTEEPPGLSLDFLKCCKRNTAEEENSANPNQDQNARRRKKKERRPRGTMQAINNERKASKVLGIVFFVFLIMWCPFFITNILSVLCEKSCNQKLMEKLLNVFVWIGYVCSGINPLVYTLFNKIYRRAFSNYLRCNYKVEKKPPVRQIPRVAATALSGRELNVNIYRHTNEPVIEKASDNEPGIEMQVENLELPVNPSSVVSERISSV

SMILES: Cc1cc2c(s1)Nc1ccccc1N=C2N1CCN(C)CC1 [olanzapine, 2-methyl-4-(4-methyl-l-piperazinyl)-10H-thieno[2,3-b][1,5] benzodiazepine]
- detection in the saliva [1]: can be detected in the saliva
- activity at the 5-HT1C receptor [2]: active
